From patent publication US11225507B2, “Conformation switchable antimicrobial peptides and methods of using the same” (priority 2017, dated 2022)

Tests used:
[1] = Circular dichroism (CD) secondary structure of polypeptides at different pH; format: physicochemical
Method: The secondary structure of the polypeptides at different pH value was then investigated by circular dichroism (CD). […] Distortion of helical conformation was noted when the pH was adjusted back to neutral (FIG. 1C).
The MALLS detector was calibrated using pure toluene and can be used for the determination of the absolute molecular weights (MWs). The MWs of polymers were determined based on the dn/dc value of each polymer sample calculated offline by using the internal calibration system processed by the ASTRA V software (version 5.1.7.3, Wyatt Technology, Santa Barbara, Calif., USA). Circular dichroism (CD) measurements were carried out on a JASCO J-815 CD spectrometer. The polymer samples were prepared at concentrations of 4.4 μM. The solution was placed in a quartz cell with a path length of 0.10 cm. The zeta-potential of polypeptides was evaluated by Malvern Zetasizer. Infrared spectra were recorded on a Perkin Elmer 100 serial FTIR spectrophotometer calibrated with polystyrene film. Lyophilization was performed on a FreeZonelyophilizer (Labconco, Kansas City, Mo., USA). UV light was generated from an OmiCure S1000 UV lamp (EXFO, Mississauga, Canada).

[2] = Liposome dye leakage assay (ANTS/DPX efflux)
Method: Liposome dye leakage assay. ANTS (12.5 mM) and DPX (45 mM) were dissolved in Tris buffer (pH=7.4). To a clean round-bottom flask, appropriate volumes of lipid stocks were added to make up 1 mL of CHCl3 (3:1 POPE (1-palmitoyl-2-oleoyl-sn-glycero-3-phosphoethanolamine)/POPG (1-palmitoyl-2-oleoyl-sn-glycero-3-phospho-(1′-rac-glycerol) (sodium salt)) vesicles, POPE (130 μL, 25 mg/mL CHCl3) and POPG (115 μL, 10 mg/mL CHCl3) were used). The solvent was removed by a stream of nitrogen gas to obtain a thin lipid film, which was then hydrated by 1 mL of ANTS/DPX solution. The mixture was left to hydrate for 1 h, after which it was subjected to 10 freeze-thaw cycles (using dry ice/acetone to freeze and warm water to thaw). The suspension was extruded 20 times through a polycarbonate membrane with 400 nm pore diameter. The excess dye was removed using Sephadex G-50 column as the eluent. The dye-filled vesicle fractions were diluted 200 times with Tris buffer. This suspension (90 μL) was subsequently mixed with polypeptide stock solutions (10 μL) at various pH (pH 7.4 or 4.0) on a 96-well black microplate (Greiner, flat bottom). Tris buffer (10 μL, pH 7.4 or 4.0) and Triton-X (0.1% v/v, 10 μL, pH 7.4 or 4.0) were employed as the negative and positive controls at corresponding pH, respectively. After 30 min, the fluorescence intensity in each well was recorded using the microplate reader with excitation and emission wavelengths of 380 and 520 nm, respectively. The percentage of leaked […] dye in each well was determined as follows: leakage (%)=[(F−F0)/(FTX−F0)]×100%, where F is the fluorescence intensity recorded in the well, F0 is the intensity in the negative control well, and FTX is the intensity in the positive control well.

[3] = test system: H. pylori SS1; assay: Anti-H. pylori efficacy in vivo (infected C57BL/6J mice); parameters: species or system Helicobacter pylori; settings: oral gavage once daily for 3 d, 2.6 μmol/kg
Method: Anti-H. pylori efficacy in vivo. […] For triple therapy, mice were first administered omeprazole (a proton pump inhibitor) through oral gavage at a dose of 400 μmol/kg, followed by a lag time of 30 min before administration of amoxicillin (68.0 μmol/kg) and clarithromycin (19.1 μmol/kg). PL2 and PDL2 in 5% (vol/vol) DMSO (both at 2.6 μmol/kg) were administered through oral gavage once daily for a consecutive 3 d. Water solution with 5% DMSO was served as negative control group. Forty-eight hours after the last administration, mice were killed and the stomach was removed from the abdominal cavity. The stomach was cut along the greater curvature, and the gastric content was removed and rinsed with PBS. The stomach sections were used for assessment of bacterial colonization. For bacterial colonization, a gastric tissue section was suspended in 1 mL PBS and homogenized for H. pylori recovery. The homogenate was serially diluted and spotted onto Columbia agar plate containing vancomycin (20 μg/mL), amphotericin (2 μg/mL), bacitracin (30 μg/mL) and nalidixic acid (10 μg/mL). The plates were then incubated at 37° C. under microaerobic conditions for 5 d, and bacterial colonies were enumerated and adjusted for dilutions.

[4] = test system: commensal bacteria; assay: Killing effect against commensal bacteria in vivo (16S rRNA qPCR); settings: mice, daily gavage for 3 consecutive days
Method: The bacterial load was determined by quantitative real-time PCR using a protocol modified from Stefka et al., and Buffie et al. (Stefka et al. (2014) Commensal bacteria protect against food allergen sensitization. Proc Natl Acad Sci USA 111:13145-13150; Buffie et al. (2012) Profound alterations of intestinal microbiota following a single dose of clindamycin results in sustained susceptibility to Clostridium difficile-induced colitis. Infect Immun 80:62-73). Fecal DNA was extracted as for sequencing, and bacterial load was quantified against a standard curve derived from apCR4TOPO-TA vector containing a nearly full-length copy of the 16S rRNA gene from a member of Porphyromonadaceae. Bacterial DNA was amplified with universal primers 8F and 338R using the iQ SYBR greensupermix (Bio-RadLifeScience) and the StepOne Plus system (AppliedBiosystems). The results were normalized to ileal content/fecal weight.

(PGA)18-r-(PHLG-MHH)20 [PL2]
secondary structure (CD) ([1]; pH≤4.2): typical helical conformation | secondary structure (CD) ([1]; pH≥5.1): random coiled conformation | dye leakage from anionic liposomes ([2]; pH 4.0): great dye leakage | dye leakage from anionic liposomes ([2]; pH 7.4): minimal dye leakage | decrease of bacterial burden in the stomach as compared with the control group [3]: ~100 times | killing of commensal bacteria in the feces [4]: did not cause undesired killing of the commensal bacteria | killing of commensal bacteria in the ileal contents [4]: did not cause undesired killing of the commensal bacteria
